Tested on: 556581-035-R-J1 tumor spheroid viability, % test/control
Test: Anticancer human tumor 556581-035-R-J1 patient-derived ovarian carcinoma cell line growth inhibition
Conditions: spheroids with HUVEC and MSC; for IC50: curve of first compound; for viability, T/C: stronger effect = lower value
Method in brief: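 Complex spheroids of malignant cells with endothelial cells and mesenchymal stem cells; agents alone or combined, from near clinical Cmax (or 10 microM if unknown) down in half-log steps, 0.25% DMSO final.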

[1] = second compound 1 µM, first compound 0.00949 µM
[2] = second compound 1 µM, first compound 0.03 µM
[3] = second compound 1 µM, first compound 0.0949 µM
[4] = second compound 1 µM, first compound 0.3 µM
[5] = second compound 1 µM, first compound 0.949 µM
[6] = second compound 1 µM, first compound 3 µM
[7] = second compound 3.16 µM, first compound 0.00949 µM
[8] = second compound 3.16 µM, first compound 0.03 µM
[9] = second compound 3.16 µM, first compound 0.0949 µM
[10] = second compound 3.16 µM, first compound 0.3 µM
[11] = second compound 3.16 µM, first compound 0.949 µM
[12] = second compound 3.16 µM, first compound 3 µM
[13] = second compound 10 µM, first compound 0.00949 µM
[14] = second compound 10 µM, first compound 0.03 µM
[15] = second compound 10 µM, first compound 0.0949 µM
[16] = second compound 10 µM, first compound 0.3 µM
[17] = second compound 10 µM, first compound 0.949 µM
[18] = second compound 10 µM, first compound 3 µM
[19] = second compound 31.6 µM, first compound 0.00949 µM
[20] = second compound 31.6 µM, first compound 0.03 µM
[21] = second compound 31.6 µM, first compound 0.0949 µM
[22] = second compound 31.6 µM, first compound 0.3 µM
[23] = second compound 31.6 µM, first compound 0.949 µM
[24] = second compound 31.6 µM, first compound 3 µM
[25] = second compound 100 µM, first compound 0.00949 µM
[26] = second compound 100 µM, first compound 0.03 µM
[27] = second compound 100 µM, first compound 0.0949 µM
[28] = second compound 100 µM, first compound 0.3 µM
[29] = second compound 100 µM, first compound 0.949 µM
[30] = second compound 100 µM, first compound 3 µM
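Also: spheroids exposed to compounds for 7 days before viability read.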

| SMILES | IC50 (second compound 1 µM) [nM] | IC50 (second compound 3.16 µM) [nM] | IC50 (second compound 10 µM) [nM] | IC50 (second compound 31.6 µM) [nM] | IC50 (second compound 100 µM) [nM] | viability, T/C [3] [%] | viability, T/C [4] [%] | viability, T/C [5] [%] | viability, T/C [6] [%] | viability, T/C [9] [%] | viability, T/C [10] [%] | viability, T/C [11] [%] | viability, T/C [12] [%] | viability, T/C [15] [%] | viability, T/C [16] [%] | viability, T/C [17] [%] | viability, T/C [18] [%] | viability, T/C [21] [%] | viability, T/C [22] [%] | viability, T/C [23] [%] | also measured |
| --- | --- | --- | --- | --- | --- | --- | --- | --- | --- | --- | --- | --- | --- | --- | --- | --- | --- | --- | --- | --- | --- |
| CNCc1ccc(-c2cc(-c3nc(-c4ccc(S(=O)(=O)C(C)C)cc4)cnc3N)on2)cc1 + Cn1nnc2c(C(N)=O)ncn2c1=O | 1670 | 1560 | 1380 | 1380 | 953 | 109 | 104 | 80.2 | 18.6 | 105 | 106 | 72.6 | 20 | 110 | 105 | 67.3 | 15.3 | 110 | 98.4 | 66.2 | viability, T/C [1]: 101%; viability, T/C [2]: 108%; viability, T/C [7]: 104%; viability, T/C [8]: 117%; viability, T/C [13]: 106%; viability, T/C [14]: 109%; viability, T/C [19]: 113%; viability, T/C [20]: 113%; viability, T/C [24]: 16.5%; viability, T/C [25]: 111%; viability, T/C [26]: 102%; viability, T/C [27]: 120%; viability, T/C [28]: 98.2%; viability, T/C [29]: 50.5%; viability, T/C [30]: 11.6% |
| Cc1sc2c(c1C)C(c1ccc(Cl)cc1)=NC(CC(=O)Nc1ccc(O)cc1)c1nnc(C)n1-2 (stereo not given) + Cn1nnc2c(C(N)=O)ncn2c1=O | > 3000 | > 3000 | > 3000 | > 3000 | 2700 | 82 | 76.4 | 68 | 64.5 | 84.8 | 75.6 | 65.5 | 61.2 | 82.6 | 72.6 | 68.1 | 57.5 | 82.2 | 70.7 | 65.1 | viability, T/C [1]: 112%; viability, T/C [2]: 95.6%; viability, T/C [7]: 101%; viability, T/C [8]: 97.6%; viability, T/C [13]: 98%; viability, T/C [14]: 94.6%; viability, T/C [19]: 96.9%; viability, T/C [20]: 93.9%; viability, T/C [24]: 54.3%; viability, T/C [25]: 99.5%; viability, T/C [26]: 99.2%; viability, T/C [27]: 79.9%; viability, T/C [28]: 71.5%; viability, T/C [29]: 59.1%; viability, T/C [30]: 48.5% |
| Cn1ncnc1[C@H]1c2n[nH]c(=O)c3cc(F)cc(c23)N[C@@H]1c1ccc(F)cc1 + Cn1nnc2c(C(N)=O)ncn2c1=O | > 3000 | > 3000 | > 3000 | 1950 | 1240 | 87.3 | 75.5 | 67.6 | 51.1 | 87.7 | 73.9 | 67.8 | 50.2 | 85.8 | 76.6 | 66 | 52.2 | 77.9 | 68.3 | 62.3 | viability, T/C [1]: 99.5%; viability, T/C [2]: 93.1%; viability, T/C [7]: 102%; viability, T/C [8]: 89.7%; viability, T/C [13]: 94%; viability, T/C [14]: 88.7%; viability, T/C [19]: 86.4%; viability, T/C [20]: 74.4%; viability, T/C [24]: 43%; viability, T/C [25]: 74.4%; viability, T/C [26]: 71.8%; viability, T/C [27]: 70.4%; viability, T/C [28]: 65.9%; viability, T/C [29]: 54.7%; viability, T/C [30]: 34% |
| O=C(c1cc(Cc2n[nH]c(=O)c3ccccc23)ccc1F)N1CCN(C(=O)C2CC2)CC1 + Cn1nnc2c(C(N)=O)ncn2c1=O | > 30000 | > 30000 | > 30000 | > 30000 | > 30000 | 99 | 100 | 102 | 90.8 | 100 | 99.8 | 95.4 | 89.9 | 98.6 | 100 | 98.7 | 89.1 | 104 | 101 | 90.3 | viability, T/C (second compound 1 µM, first compound 9.49 µM): 80.2%; viability, T/C (second compound 1 µM, first compound 30 µM): 71.9%; viability, T/C (second compound 3.16 µM, first compound 9.49 µM): 82.4%; viability, T/C (second compound 3.16 µM, first compound 30 µM): 63.9%; viability, T/C (second compound 10 µM, first compound 9.49 µM): 74.6%; viability, T/C (second compound 10 µM, first compound 30 µM): 64.3%; viability, T/C [24]: 85.3%; viability, T/C (second compound 31.6 µM, first compound 9.49 µM): 70.9%; viability, T/C (second compound 31.6 µM, first compound 30 µM): 62.9%; viability, T/C [27]: 92.7%; viability, T/C [28]: 83.6%; viability, T/C [29]: 80.2%; viability, T/C [30]: 70.6%; viability, T/C (second compound 100 µM, first compound 9.49 µM): 67.9%; viability, T/C (second compound 100 µM, first compound 30 µM): 54.7% |

From PubChem BioAssay AID1845199 (Molecular Pharmacology Branch, DTP, NCI, 2023)
